For the test, the target named is PolQ ATPase enzyme (1-894) (Homo sapiens (Human), UniProt O75417). Put plainly: Polθ ATPase enzymatic assay (0.5 nM enzyme concentration), ADP-Glo. It is filed as biochemical. The settings on record: 0.5 nM PolQ ATPase enzyme (1-894); average IC50. The method, then: PolQ ATPase enzyme (1-894) at 0.5 nM is incubated with a 10-point concentration response of inhibitors for 15 min at rt in the following buffer: 50 mM Tris Cl pH 7.5, 10% glycerol, 5 mM DTT, 10 mM MgCl2, 0.1 mg/ml BSA. Following pre-incubation with inhibitors, DNA (Fork C) at 20 nM and ATP at 100 μM are added to start the reaction. Enzymatic reaction proceeds at rt for 180 min. ATP consumption is measured using the ADP-Glo assay from Promega. Luminescence is read on the Envision and IC50 are determined using the variable slope 4-parameters equation.
Sequence of PolQ ATPase enzyme (1-894) (O75417 1-894): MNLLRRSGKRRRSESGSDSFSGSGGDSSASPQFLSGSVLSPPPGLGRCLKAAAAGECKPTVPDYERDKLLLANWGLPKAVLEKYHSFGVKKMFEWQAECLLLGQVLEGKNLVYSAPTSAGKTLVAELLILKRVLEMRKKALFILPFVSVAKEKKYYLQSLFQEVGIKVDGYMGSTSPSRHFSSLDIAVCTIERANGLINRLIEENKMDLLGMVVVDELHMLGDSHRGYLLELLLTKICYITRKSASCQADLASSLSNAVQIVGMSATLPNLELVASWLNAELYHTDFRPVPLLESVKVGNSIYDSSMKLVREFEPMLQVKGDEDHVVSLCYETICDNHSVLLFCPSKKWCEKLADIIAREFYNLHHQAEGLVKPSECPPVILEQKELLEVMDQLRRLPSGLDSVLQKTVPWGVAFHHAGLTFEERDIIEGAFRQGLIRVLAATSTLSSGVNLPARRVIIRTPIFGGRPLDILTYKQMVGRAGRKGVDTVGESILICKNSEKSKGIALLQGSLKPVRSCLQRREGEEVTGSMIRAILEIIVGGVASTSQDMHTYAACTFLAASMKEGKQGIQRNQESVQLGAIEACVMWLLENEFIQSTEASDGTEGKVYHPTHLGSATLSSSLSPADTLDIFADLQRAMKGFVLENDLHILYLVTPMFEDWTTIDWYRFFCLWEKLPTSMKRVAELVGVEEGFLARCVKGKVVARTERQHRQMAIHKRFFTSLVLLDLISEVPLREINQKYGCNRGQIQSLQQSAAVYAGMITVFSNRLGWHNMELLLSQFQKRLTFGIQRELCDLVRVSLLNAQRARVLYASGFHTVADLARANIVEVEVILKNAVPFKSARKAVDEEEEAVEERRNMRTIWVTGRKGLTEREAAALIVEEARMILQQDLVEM
Oligos are annealed by heating at 95° C. for 5 min in the following buffer (10 mM Tris-HCl PH7.5, 50 mM NaCl, 1 mM EDTA) and cooled to rt. […]
(In ADP-Glo the light output rises with the ADP produced.)
On to `COc1ncc(-c2cc(-c3cc(C(F)F)ncc3OC)c(C(=O)Nc3nnc(C#CC4CC4)s3)cn2)cn1` [Compound 533], for which it took 1.6 nM to reach half-maximal inhibition (IC50).
To `COc1cnc(C(F)F)cc1-c1cc(-n2ccc(C)cc2=O)ncc1C(=O)Nc1nnc([C@H]2C[C@@H]2C(F)(F)F)s1` [Compound 534] belongs 0.95 nM.
In the case of `COc1cnc(C(F)F)cc1-c1cc(-n2ccc(N3CCN(C)CC3)cc2=O)ncc1C(=O)Nc1nnc(C#CC2CC2)s1` [Compound 535] it was 0.73 nM; in that of `COc1cnc(C(F)F)cc1-c1cc(-n2ccc(C3CCN(C)CC3)cc2=O)ncc1C(=O)Nc1nnc(C#CC2CC2)s1` [Compound 536], 0.96 nM; in that of `COc1cnc(C(F)F)cc1-c1cc(-n2ccc(N(C)C)cc2=O)ncc1C(=O)Nc1nnc(C#CC2CC2)s1` [Compound 537], 0.44 nM.
Molecule `COc1ccc(-c2cc(-c3cc(C(F)F)ncc3OC)c(C(=O)Nc3nnc(C#CC4CC4)s3)cn2)c(OC)n1` [Compound 538] gave a half-maximal inhibitory concentration (IC50) of 5.7 nM.
To `COc1cnc(C(F)F)cc1-c1cc(C#CCN2CCN(C)CC2)ncc1C(=O)Nc1nnc(C#CC2CC2)s1` [Compound 540] belongs 1 nM; to `COc1cnc(C(F)F)cc1-c1cc(C#CCCN2CCOCC2)ncc1C(=O)Nc1nnc(C#CC2CC2)s1` [Compound 541], 0.55 nM; to `COc1cnc(C(F)F)cc1-c1cc(C#CCN2CCOCC2=O)ncc1C(=O)Nc1nnc(C#CC2CC2)s1` [Compound 542], 0.29 nM.
On to `COc1cnc(C(F)F)cc1-c1cc(C=C=CN2CCOCC2=O)ncc1C(=O)Nc1nnc(C#CC2CC2)s1` [Compound 543], for which the IC50 came out at 51 nM. Compared with the last molecule, the IC50 is about 180-fold higher.
In the case of `COc1cnc(C(F)F)cc1-c1cc(-n2ccc(C)cc2=O)ncc1C(=O)Nc1nnc([C@H]2C[C@@H]2F)s1` [Compound 544] it was 1.9 nM.
To `COc1cnc(C(F)F)cc1-c1cc(-n2ccc(C)cc2=O)ncc1C(=O)Nc1nnc([C@H]2C[C@@H]2C)s1` [Compound 545] belongs 1.1 nM.
To `C#C[C@H]1C[C@@H]1c1nnc(NC(=O)c2cnc(-n3cc(C)ccc3=O)cc2-c2cc(C(F)F)ncc2OC)s1` [Compound 546] belongs less than 0.25 nM.
In turn, `C#C[C@H]1C[C@@H]1c1nnc(NC(=O)c2cnc(-n3cccc(C)c3=O)cc2-c2cc(C(F)F)ncc2OC)s1` [Compound 547] had an IC50 of less than 0.25 nM.
On to `C#C[C@H]1C[C@@H]1c1nnc(NC(=O)c2cnc(-n3ccc(N4CCN(C)CC4)cc3=O)cc2-c2cc(C(F)F)ncc2OC)s1` [Compound 548], for which half-maximal inhibition (IC50) required 0.79 nM.
The molecule `COc1cnc(C(F)F)cc1-c1cc(C#CC(C)(C)N2CCN(C)CC2)ncc1C(=O)Nc1nnc(C#CC2CC2)s1` [Compound 549] registered an IC50 of 1.5 nM. This IC50 is about 1.9-fold higher than that of the molecule before.
`COc1cnc(C(F)F)cc1-c1cc(C#CCN2CCCC2=O)ncc1C(=O)Nc1nnc(C#CC2CC2)s1` [Compound 550] displayed an IC50 of less than 0.25 nM.
For `COc1cnc(C(F)F)cc1-c1cc(-n2cc(C)ccc2=O)ncc1C(=O)Nc1nnc([C@H]2C[C@@H]2C(F)(F)F)s1` [Compound 551], the IC50 was 0.47 nM.
`COc1cnc(C(F)F)cc1-c1cc(-n2cccc(C)c2=O)ncc1C(=O)Nc1nnc([C@H]2C[C@@H]2C(F)(F)F)s1` [Compound 552]: it took 0.45 nM to reach half-maximal inhibition (IC50).
`COc1cnc(C(F)F)cc1-c1cc(C#CC(C)(C)N2CCCCC2)ncc1C(=O)Nc1nnc(C#CC2CC2)s1` [Compound 553] showed an IC50 of 0.5 nM.
Consider `COc1cnc(C(F)F)cc1-c1cc(C#CC2(N)CC2)ncc1C(=O)Nc1nnc(C#CC2CC2)s1` [Compound 554], for which the IC50 is less than 0.25 nM.
For `COc1cnc(C(F)F)cc1-c1cc(C#CC2CCN(C)CC2)ncc1C(=O)Nc1nnc(C#CC2CC2)s1` [Compound 555], the IC50 stood at 1 nM.
To `COc1cnc(C(F)F)cc1-c1cc(C#CCNCC(F)(F)F)ncc1C(=O)Nc1nnc(C#CC2CC2)s1` [Compound 558] belongs less than 0.25 nM.
To `COc1cnc(C(F)F)cc1-c1cc(C#CCN2CCNC2=O)ncc1C(=O)Nc1nnc(C#CC2CC2)s1` [Compound 559] belongs less than 0.25 nM; to `COc1cnc(C(F)F)cc1-c1cc(C#CC(C)(C)N2CC(C)(C)C2)ncc1C(=O)Nc1nnc(C#CC2CC2)s1` [Compound 560], 1.15 nM; to `COc1cnc(C(F)F)cc1-c1cc(C#CCN2C(=O)CCC2=O)ncc1C(=O)Nc1nnc(C#CC2CC2)s1` [Compound 561], greater than 100 nM.
To `C#C[C@H]1C[C@@H]1c1nnc(NC(=O)c2cnc(-n3cccc(F)c3=O)cc2-c2cc(C(F)F)ncc2OC)s1` [Compound 562, 2″-(difluoromethyl)-N-(5-((1S,2S)-2-ethynylcyclopropyl)-1,3,4-thiadiazol-2-yl)-3-fluoro-5″-methoxy-2-oxo-2H-[1,2′:4′,4″-terpyridine]-5′-carboxamide] belongs less than 0.25 nM.
`COc1cnc(C(F)F)cc1-c1cc(-n2ccc(C)cc2=O)ncc1C(=O)Nc1nnc([C@H]2C[C@@H]2c2ccc(C#N)cc2)s1` [Compound 563] registered a 50% inhibitory concentration (IC50) of less than 0.25 nM.
To `CCOC(=O)N1CCN(c2cc(-c3cc(C(F)F)ncc3OC)c(C(=O)Nc3nnc(C#CC4CC4)s3)cn2)C(=O)C12CC2` [Compound 564] belongs 0.38 nM.
To `C#C[C@H]1C[C@@H]1c1nnc(NC(=O)c2cnc(N3CCN(C(=O)OCC)C4(CC4)C3=O)cc2-c2cc(C(F)F)ncc2OC)s1` [Compound 565] belongs 1.1 nM.
The molecule `COc1cnc(C(F)F)cc1-c1cc(-n2ccc(C)cc2=O)ncc1C(=O)Nc1nnc(C2CC3(CCC3)C2)s1` [Compound 566] came in with an IC50 of 2 nM.
For `COc1cnc(C(F)F)cc1-c1cc(-n2ccc(C)cc2=O)ncc1C(=O)Nc1nnc(C2CC(C)(C)C2)s1` [Compound 567], the IC50 came out at 4.3 nM. Compared with the last molecule, the IC50 is about 2.1-fold higher.
`COc1cnc(C(F)F)cc1-c1cc(-n2ccc(C)cc2=O)ncc1C(=O)Nc1nnc(CC(C)(C)OC)s1` [Compound 568] came in with an IC50 of 45 nM. This IC50 is about 10-fold higher than that of the molecule before.
In turn, `C#C[C@H]1C[C@@H]1c1nnc(NC(=O)c2cnc(-n3ccc(CO)cc3=O)cc2-c2cc(C(F)F)ncc2OC)s1` [Compound 571] had an IC50 of less than 0.25 nM.
To `C#C[C@H]1C[C@@H]1c1nnc(NC(=O)c2cnc(C#CCN3CCOCC3)cc2-c2cc(C(F)F)ncc2OC)s1` [Compound 573] belongs 1 nM; to `C#C[C@H]1C[C@@H]1c1nnc(NC(=O)c2cnc(N3CCN(C)C4(CC4)C3=O)cc2-c2cc(C(F)F)ncc2OC)s1` [Compound 574], 1.1 nM; to `C#C[C@H]1C[C@@H]1c1nnc(NC(=O)c2cnc(-n3cccc(C(F)(F)F)c3=O)cc2-c2cc(C(F)F)ncc2OC)s1` [Compound 575], 0.32 nM.
In the case of `COc1cnc(C(F)F)cc1-c1cc(-n2ccc(C)cc2=O)ncc1C(=O)Nc1nnc(C(C)(C)OC)s1` [Compound 576] it was 29 nM.
The molecule `C#C[C@H]1C[C@@H]1c1nnc(NC(=O)c2cnc(Oc3cc(Cl)ccn3)cc2-c2cc(C(F)F)ncc2OC)s1` [Compound 577] displayed an IC50 of less than 0.25 nM.
To `COc1cnc(C(F)F)cc1-c1cc(-n2ccc(C)cc2=O)ncc1C(=O)Nc1nnc(COC(C)(C)C)s1` [Compound 578] belongs 25 nM.
In the case of `COc1cnc(C(F)F)cc1-c1cc(C#CCN2CCCCC2)ncc1C(=O)Nc1nnc(C#CC2CC2)s1` [Compound 589], the IC50 came out at 0.7 nM.
In the case of `C#C[C@H]1C[C@@H]1c1nnc(NC(=O)c2cnc(-n3cccc(Cl)c3=O)cc2-c2cc(C(F)F)ncc2OC)s1` [Compound 591] it was less than 0.25 nM.
Take `C#C[C@H]1C[C@@H](c2nnc(NC(=O)c3cnc(-n4ccc(C)cc4=O)cc3-c3cc(C(F)F)ncc3OC)s2)C1` [Compound 594]: the IC50 came to 3 nM.
`C#C[C@H]1C[C@H](c2nnc(NC(=O)c3cnc(-n4ccc(C)cc4=O)cc3-c3cc(C(F)F)ncc3OC)s2)C1` [Compound 595] displayed an IC50 of 2.9 nM. The IC50 values of the last two molecules are within 1.5-fold of each other.
To `COc1cnc(C(F)F)cc1-c1cc(C#CCN2CC[S+]([O-])CC2)ncc1C(=O)Nc1nnc(C#CC2CC2)s1` [Compound 596] belongs 0.45 nM; to `C=C1CC(c2nnc(NC(=O)c3cnc(-n4ccc(C)cc4=O)cc3-c3cc(C(F)F)ncc3OC)s2)C1` [Compound 597], 3.6 nM.
Molecule `COc1cnc(C(F)F)cc1-c1cc(C#CCn2cccn2)ncc1C(=O)Nc1nnc(C#CC2CC2)s1` [Compound 598] had an IC50 of 15 nM. Against the preceding molecule, the IC50 is about 4.2-fold higher.
In the case of `COc1cnc(C(F)F)cc1-c1cc(C#CCn2cc(C)cn2)ncc1C(=O)Nc1nnc(C#CC2CC2)s1` [Compound 599] it was 21 nM; in that of `COc1cnc(C(F)F)cc1-c1cc(C#CCN2CCCC2)ncc1C(=O)Nc1nnc(C#CC2CC2)s1` [Compound 600], 0.6 nM; in that of `COc1cnc(C(F)F)cc1-c1cc(C#CCn2ccnc2)ncc1C(=O)Nc1nnc(C#CC2CC2)s1` [Compound 601], 2.7 nM.
To `COCc1nnc(NC(=O)c2cnc(-n3ccc(C)cc3=O)cc2-c2cc(C(F)F)ncc2OC)s1` [Compound 602] belongs 11 nM; to `COc1cnc(C(F)F)cc1-c1cc(-n2ccc(C)cc2=O)ncc1C(=O)Nc1nnc(CC(=O)N(C)C)s1` [Compound 603], 40 nM.
In the case of `COc1cnc(C(F)F)cc1-c1cc(-n2cccc(Cl)c2=O)ncc1C(=O)Nc1nnc([C@H]2C[C@@H]2C(F)(F)F)s1` [Compound 607] it was 0.95 nM; in that of `COc1cnc(C(F)F)cc1-c1cc(-n2cccc(Cl)c2=O)ncc1C(=O)Nc1nnc([C@H]2C[C@@H]2C)s1` [Compound 608], 0.79 nM.
In the case of `COc1cnc(C(F)F)cc1-c1cc(C#CCN2CCOCC2)ncc1C(=O)Nc1nnc([C@H]2C[C@@H]2C(F)(F)F)s1` [Compound 609], the IC50 worked out at 3.1 nM.
`COc1cnc(C(F)F)cc1-c1cc(-n2ccc(OC3COC3)cc2=O)ncc1C(=O)Nc1nnc(C#CC2CC2)s1` [Compound 610] came in with an IC50 of 0.27 nM.

The term IC50 denotes the point on the concentration scale where inhibition reaches its midpoint. High values mean weaker potency, low ones greater potency.

(Values after patent US20260022114A1, “N-(5-SUBSTITUTED-[(1,3,4-THIADIAZOLYL) OR (1,3-THIAZOLYL)](SUBSTITUTED)CARBOXAMIDE COMPOUNDS, PHARMACEUTICAL COMPOSITIONS, AND METHODS OF PREPARING THE AMIDE COMPOUNDS AND OF THEIR USE” (Repare Therapeutics Inc., priority 2022, published 2026).)
